Measured values as given in US20210283082A1, “PHARMACEUTICAL COMPOSITION FOR PREVENTION OR TREATMENT OF KIDNEY DAMAGE” (National University Corporation Kanazawa University, priority 2018, published 2021).
Entries after “also recorded” stand apart in the source; their conditions may differ.

What was measured:
[1] = test system: mice treated by renal ischemia reperfusion; assay: Renal ischemia reperfusion, F4/80 immunostaining of kidney tissue (macrophages); type: in vivo; details: day 5 after ischemia reperfusion; 20 mM D-serine water vs water
Procedure: The animals were reared with free access to water and feed under conditions with an SPF environment and 12-hour light-dark cycling. C57BL/6J mice were purchased from Clea Japan, Inc. (Osaka). Male 12- to 16-week-old mice were treated by renal ischemia reperfusion (hereunder also referred to as “I/R”). The renal pedicles were clamped with a non-traumatic clip (Natsume Seisakusho, Tokyo) under pentobarbital anesthesia to elicit ischemia. The clips were released after 40 minutes. The body temperature was kept at 37° C. during treatment. The mice were reared with free access to water (control) or 20 mM D-serine-containing water, prior to 14 days after IR treatment. On day 0, 2, 5, 7 and 10 after IR treatment, the kidney tissues were sampled. Renal samples harvested on day 0 and day 5 were fixed with 10% neutral buffered formalin and supplied for immunostaining using F4/80 antibody (Invitrogen, catalog #: MF48,000). F4/80 is a protein expressed specifically by macrophages, and it allows visualization of macrophages in kidney tissue. In the water-administered control group, cells stained with F4/80 were found accumulated in kidney tissue (day 5), but in the D-serine-administered group such cellular accumulation was minimal (FIG. 3(A)). The regions stained with F4/80 in the kidney tissue harvested on day […] were measured and shown (FIG. 3(B)).

[2] = test system: mice treated by renal ischemia reperfusion; assay: Renal ischemia reperfusion, PAS staining and ATN score of kidney tissue sections; type: in vivo
Procedure: The animals were reared with free access to water and feed under conditions with an SPF environment and 12-hour light-dark cycling. C57BL/6J mice were purchased from Clea Japan, Inc. (Osaka). Male 12- to 16-week-old mice were treated by renal ischemia reperfusion (hereunder also referred to as “I/R”). The renal pedicles were clamped with a non-traumatic clip (Natsume Seisakusho, Tokyo) under pentobarbital anesthesia to elicit ischemia. The clips were released after 40 minutes. The body temperature was kept at 37° C. during treatment. The mice were reared with free access to water (control) or 20 mM D-serine-containing water, prior to 14 days after IR treatment. On day 0, 2, 5, 7 and 10 after IR treatment, the kidney tissues were sampled. Kidneys sampled on day 0, 2 and 10 were fixed with 10% neutral buffered formalin and embedded in paraffin, and then stained with periodic acid-Schiff (PAS staining). The stained slices were photographed with a bright-field microscope (FIG. 1). Debris stained with PAS (skin boundary) or brush border (skin boundary and cortical region) were quantitatively evaluated in at least 10 different locations. Renal tubule necrosis (A), intraluminal debris (B) and brush border region (C) were evaluated by ATN score (0: none, 1: mild, 2: moderate, 3: severe), with the results shown in FIGS. 2(A) to (C). Sample evaluation was carried out blind.

[3] = Blood D-serine concentration after free provision of 20 mM D-serine water; type: in vivo; details: mice reared with free access to 20 mM D-serine-containing water
Procedure: The animals were reared with free access to water and feed under conditions with an SPF environment and 12-hour light-dark cycling. C57BL/6J mice were purchased from Clea Japan, Inc. (Osaka).
The mice were reared in an environment allowing free access to water (control) or 20 mM D-serine-containing water, and the blood D-serine concentrations were measured. The blood D-serine concentrations were determined by total amino acid optical isomer analysis using a D, L-amino acid simultaneous high sensitivity analysis system developed by Zaitsu et al. (Japanese Patent No. 4291628). The details regarding the analysis conditions for each amino acid are described in Miyoshi Y. et al., J. Chromatogr. B, 879:3184(2011) and Sasabe, J. et al., Proc. Natl. Acad. Sci. U.S.A., 109:627(2012). In brief, serum and urine amino acids were fluorescently derivatized with NBD-F (4-fluoro-7-nitro-2,1,3-benzooxadiazole, Tokyo Kasei Kogyo Co., Ltd.) and supplied to an HPLC system (NANOSPACE SI-2 Series, product of Shiseido Corp.). NBD-amino acids separated two-dimensionally using an in-house reversed-phase column with an octadecyl group as the stationary phase and a chiral column with an amino acid derivative as the stationary phase, were quantitatively analyzed after detection at an excitation wavelength of 470 nm and a detection wavelength of 530 nm. […]

rats = details: intraperitoneal, 800 mg/kg (NPL 3), 400 mg/kg (NPL 4) or 250 mg/kg (NPLs 5 and 6); cited from earlier work

With `N[C@H](CO)C(=O)O` [D-serine] the “F4/80 staining of kidney tissue (accumulation of macrophages and monocytes)” value [1] was “little change in staining intensity; also recorded: minimal”, the “grades of necrosis, intraluminal debris and brush border region (ATN score)” value ([2]; 0, 2, 5, 7 and 10 days after ischemia reperfusion, compared to the group given water) was “improved” and the “PAS staining intensity of kidney tissue section (accumulation of inflammatory cells such as neutrophils and eosinophils)” value ([2]; day 10 after ischemia reperfusion, 20 mM D-serine water vs water) was “no such change in staining intensity”. For the same compound, the “protecting effect on the kidneys” value ([2]; mice, drinking water containing 20 mM D-serine, blood concentration 100 nmol/mL) was “able to exhibit a protecting effect on the kidneys”, the “blood D-serine concentration” value [3] was 100 nmol/mL and the nephrotoxicity (rats) was “causes nephrotoxicity”.
